Measured values published in ChEMBL document CHEMBL1147845, “Rapid synthesis of sulfone derivatives as potential anti-infectious agents” (2007).
In brackets after ≈: the same amount, converted by molar mass. Activity calls are given as the source filed them. The rule behind the calls is not given here.

Legend:
Candida albicans [1] = assay: Antimicrobial activity against Candida albicans ATCC 90029 by disk diffusion method; type: functional, organism-based
Candida tropicalis [2] = assay: Antimicrobial activity against Candida tropicalis IP 2031 by disk diffusion method; type: functional
Pseudomonas aeruginosa [3] = assay: Antimicrobial activity against Pseudomonas aeruginosa ATCC 15442 by disk diffusion method; type: functional, organism-based
Escherichia coli [4] = assay: Antimicrobial activity against Escherichia coli ATCC 10536 by disk diffusion method; type: functional
Staphylococcus aureus [5] = assay: Antimicrobial activity against Staphylococcus aureus ATCC 6538 by broth microdilution method; type: functional
Candida tropicalis [6] = assay: Antimicrobial activity against Candida tropicalis IP 2031 by broth microdilution method; type: functional
Staphylococcus aureus [7] = assay: Antimicrobial activity against Staphylococcus aureus ATCC 6538 by disk diffusion method; type: functional
Enterococcus hirae [8] = assay: Antimicrobial activity against Enterococcus hirae ATCC 10541 by disk diffusion method; type: functional, organism-based
Escherichia coli [9] = assay: Antimicrobial activity against Escherichia coli ATCC 10536 at 20 ug by disk diffusion method; type: functional, organism-based
Pseudomonas aeruginosa [10] = assay: Antimicrobial activity against Pseudomonas aeruginosa ATCC 15442 at 20 ug by disk diffusion method; type: functional, organism-based
Candida tropicalis [11] = assay: Antimicrobial activity against Candida tropicalis IP 2031 at 20 ug by disk diffusion method; type: functional; settings: read-out: IZ
Enterococcus hirae [12] = assay: Antimicrobial activity against Enterococcus hirae ATCC 10541 at 20 ug by disk diffusion method; type: functional, organism-based
Candida albicans [13] = assay: Antimicrobial activity against Candida albicans ATCC 90029 at 20 ug by disk diffusion method; type: functional; settings: read-out: IZ
Staphylococcus aureus [14] = assay: Antimicrobial activity against Staphylococcus aureus ATCC 6538 at 20 ug by disk diffusion method; type: functional, organism-based
Candida albicans [15] = assay: Antimicrobial activity against Candida albicans ATCC 90029 at 10 ug by disk diffusion method; type: functional, organism-based
Staphylococcus aureus [16] = assay: Antimicrobial activity against Staphylococcus aureus ATCC 6538 at 10 ug by disk diffusion method; type: functional; settings: read-out: IZ
Candida tropicalis [17] = assay: Antimicrobial activity against Candida tropicalis IP 2031 at 10 ug by disk diffusion method; type: functional, organism-based
Escherichia coli [18] = assay: Antimicrobial activity against Escherichia coli ATCC 10536 at 10 ug by disk diffusion method; type: functional, organism-based
Pseudomonas aeruginosa [19] = assay: Antimicrobial activity against Pseudomonas aeruginosa ATCC 15442 at 10 ug by disk diffusion method; type: functional, organism-based
Enterococcus hirae [20] = assay: Antimicrobial activity against Enterococcus hirae ATCC 10541 at 10 ug by disk diffusion method; type: functional, organism-based
Candida tropicalis [21] = assay: Antimicrobial activity against Candida tropicalis IP 2031 at 30 ug by disk diffusion method; type: functional, organism-based
Enterococcus hirae [22] = assay: Antimicrobial activity against Enterococcus hirae ATCC 10541 at 30 ug by disk diffusion method; type: functional, organism-based
Pseudomonas aeruginosa [23] = assay: Antimicrobial activity against Pseudomonas aeruginosa ATCC 15442 at 30 ug by disk diffusion method; type: functional, organism-based
Candida albicans [24] = assay: Antimicrobial activity against Candida albicans ATCC 90029 at 30 ug by disk diffusion method; type: functional, organism-based
Escherichia coli [25] = assay: Antimicrobial activity against Escherichia coli ATCC 10536 at 30 ug by disk diffusion method; type: functional; settings: read-out: IZ
Staphylococcus aureus [26] = assay: Antimicrobial activity against Staphylococcus aureus ATCC 6538 at 30 ug by disk diffusion method; type: functional, organism-based

Question: `O=C(CS(=O)(=O)c1ccc(Cl)cc1)c1ccc([N+](=O)[O-])cc1` was tested. Which Activity (Candida albicans [1]) did it give?
Answer: Its Activity is “inactive”.

Question: What about the “inhibition zone (IZ)” value (Candida tropicalis [2]) of the same molecule?
Answer: Its value is 19 mm.

Question: And the Activity (Pseudomonas aeruginosa [3])?
Answer: Its Activity is “inactive”.

Question: And the Activity (Escherichia coli [4])?
Answer: Its Activity is “inactive”.

Question: What about the MIC (Staphylococcus aureus [5]) of the same molecule?
Answer: The MIC was 100 µg/mL (≈ 294 µM).

Question: What about the MIC (Candida tropicalis [6]) of the same molecule?
Answer: Its MIC is 100 µg/mL (≈ 294 µM).

Question: What about the “inhibition zone (IZ)” value (Staphylococcus aureus [7]) of the same molecule?
Answer: Its value is 24 mm.

Question: And the Activity (Enterococcus hirae [8])?
Answer: Its Activity is “inactive”.

Question: For `O=C(c1ccc([N+](=O)[O-])cc1)C(Cc1ccccc1)S(=O)(=O)c1ccccc1` (centres undefined), which Activity (Candida albicans [1]) is on record?
Answer: Its Activity is “inactive”.

Question: And the Activity (Candida tropicalis [2])?
Answer: The Activity was “inactive”.

Question: And the Activity (Pseudomonas aeruginosa [3])?
Answer: The Activity was “inactive”.

Question: And the Activity (Escherichia coli [4])?
Answer: Its Activity is “inactive”.

Question: And the Activity (Staphylococcus aureus [7])?
Answer: The Activity was “inactive”.

Question: And the Activity (Enterococcus hirae [8])?
Answer: Its Activity is “inactive”.

Question: For `OC(Cn1cncn1)(Cn1cncn1)c1ccc(F)cc1F` [FLUCONAZOLE], which Activity (Escherichia coli [9]) is on record?
Answer: The Activity was “inactive”.

Question: What about the Activity (Pseudomonas aeruginosa [10]) of the same molecule?
Answer: The Activity was “inactive”.

Question: And the zone of inhibition at 20 µg/disc (Candida tropicalis [11])?
Answer: The zone of inhibition at 20 µg/disc was 21 mm.

Question: And the Activity (Enterococcus hirae [12])?
Answer: The Activity was “inactive”.

Question: What about the zone of inhibition at 20 µg/disc (Candida albicans [13]) of the same molecule?
Answer: Its zone of inhibition at 20 µg/disc is 18 mm.

Question: And the Activity (Staphylococcus aureus [14])?
Answer: Its Activity is “inactive”.

Question: How did the Activity (Candida albicans [1]) turn out when `Cc1ccc(S(=O)(=O)CC(=O)c2ccc([N+](=O)[O-])cc2)cc1` was run?
Answer: Its Activity is “inactive”.

Question: And the “inhibition zone (IZ)” value (Candida tropicalis [2])?
Answer: Its value is 22 mm.

Question: What about the Activity (Pseudomonas aeruginosa [3]) of the same molecule?
Answer: The Activity was “inactive”.

Question: What about the “inhibition zone (IZ)” value (Escherichia coli [4]) of the same molecule?
Answer: The value was 12 mm.

Question: What about the MIC (Staphylococcus aureus [5]) of the same molecule?
Answer: Its MIC is > 100 µg/mL.

Question: And the MIC (Candida tropicalis [6])?
Answer: Its MIC is > 100 µg/mL.

Question: And the “inhibition zone (IZ)” value (Staphylococcus aureus [7])?
Answer: Its value is 11 mm.

Question: And the Activity (Enterococcus hirae [8])?
Answer: Its Activity is “inactive”.

Question: `O=C(CS(=O)(=O)c1ccc(F)cc1)c1ccc([N+](=O)[O-])cc1` was tested. Which Activity (Candida albicans [1]) did it give?
Answer: Its Activity is “inactive”.

Question: And the “inhibition zone (IZ)” value (Candida tropicalis [2])?
Answer: The value was 19 mm.

Question: And the Activity (Pseudomonas aeruginosa [3])?
Answer: The Activity was “inactive”.

Question: And the Activity (Escherichia coli [4])?
Answer: Its Activity is “inactive”.

Question: What about the MIC (Staphylococcus aureus [5]) of the same molecule?
Answer: The MIC was > 100 µg/mL.

Question: What about the MIC (Candida tropicalis [6]) of the same molecule?
Answer: Its MIC is > 100 µg/mL.

Question: What about the “inhibition zone (IZ)” value (Staphylococcus aureus [7]) of the same molecule?
Answer: Its value is 25 mm.

Question: What about the Activity (Enterococcus hirae [8]) of the same molecule?
Answer: The Activity was “inactive”.

Question: Which results are given for `CN[C@@H]1[C@H](O[C@H]2[C@H](O[C@H]3[C@H](O)[C@@H](O)[C@H](N=C(N)N)[C@@H](O)[C@@H]3N=C(N)N)O[C@@H](C)[C@]2(O)C=O)O[C@@H](CO)[C@H](O)[C@H]1O` [STREPTOMYCIN]?
Answer: Activity (Candida albicans [15]): inactive; zone of inhibition at 10 µg/disc (Staphylococcus aureus [16]): 27 mm; Activity (Candida tropicalis [17]): inactive; Activity (Escherichia coli [18]): inactive; Activity (Pseudomonas aeruginosa [19]): inactive; Activity (Enterococcus hirae [20]): inactive

Question: Which Activity (Candida tropicalis [21]) does the source give for `O=C(N[C@H](CO)[C@H](O)c1ccc([N+](=O)[O-])cc1)C(Cl)Cl` [CHLORAMPHENICOL] here?
Answer: Its Activity is “inactive”.

Question: What about the Activity (Enterococcus hirae [22]) of the same molecule?
Answer: The Activity was “inactive”.

Question: And the Activity (Pseudomonas aeruginosa [23])?
Answer: The Activity was “inactive”.

Question: What about the Activity (Candida albicans [24]) of the same molecule?
Answer: Its Activity is “inactive”.

Question: And the zone of inhibition at 30 µg/disc (Escherichia coli [25])?
Answer: Its zone of inhibition at 30 µg/disc is 34 mm.

Question: And the Activity (Staphylococcus aureus [26])?
Answer: Its Activity is “inactive”.

Question: How did the Activity (Candida albicans [1]) turn out when `O=C(CS(=O)(=O)c1cccc2ccccc12)c1ccc([N+](=O)[O-])cc1` was run?
Answer: Its Activity is “inactive”.

Question: And the “inhibition zone (IZ)” value (Candida tropicalis [2])?
Answer: Its value is 12 mm.

Question: And the Activity (Pseudomonas aeruginosa [3])?
Answer: The Activity was “inactive”.

Question: What about the Activity (Escherichia coli [4]) of the same molecule?
Answer: The Activity was “inactive”.

Question: And the MIC (Staphylococcus aureus [5])?
Answer: Its MIC is > 100 µg/mL.

Question: What about the MIC (Candida tropicalis [6]) of the same molecule?
Answer: Its MIC is > 100 µg/mL.

Question: What about the “inhibition zone (IZ)” value (Staphylococcus aureus [7]) of the same molecule?
Answer: The value was 10 mm.

Question: What about the Activity (Enterococcus hirae [8]) of the same molecule?
Answer: The Activity was “inactive”.

Question: How did the Activity (Candida albicans [1]) turn out when `O=C(CS(=O)(=O)c1ccc(I)cc1)c1ccc([N+](=O)[O-])cc1` was run?
Answer: Its Activity is “inactive”.

Question: What about the Activity (Candida tropicalis [2]) of the same molecule?
Answer: Its Activity is “inactive”.

Question: What about the Activity (Pseudomonas aeruginosa [3]) of the same molecule?
Answer: The Activity was “inactive”.

Question: And the Activity (Escherichia coli [4])?
Answer: Its Activity is “inactive”.

Question: And the MIC (Staphylococcus aureus [5])?
Answer: Its MIC is > 100 µg/mL.

Question: And the MIC (Candida tropicalis [6])?
Answer: Its MIC is > 100 µg/mL.

Question: And the “inhibition zone (IZ)” value (Staphylococcus aureus [7])?
Answer: Its value is 11 mm.

Question: What about the Activity (Enterococcus hirae [8]) of the same molecule?
Answer: Its Activity is “inactive”.

Question: `O=C(CS(=O)(=O)c1ccc([N+](=O)[O-])cc1)c1ccc([N+](=O)[O-])cc1` was tested. Which Activity (Candida albicans [1]) did it give?
Answer: Its Activity is “inactive”.

Question: And the “inhibition zone (IZ)” value (Candida tropicalis [2])?
Answer: The value was 12 mm.

Question: What about the Activity (Pseudomonas aeruginosa [3]) of the same molecule?
Answer: Its Activity is “inactive”.

Question: And the Activity (Escherichia coli [4])?
Answer: Its Activity is “inactive”.

Question: What about the MIC (Staphylococcus aureus [5]) of the same molecule?
Answer: Its MIC is 100 µg/mL (≈ 285 µM).

Question: And the MIC (Candida tropicalis [6])?
Answer: Its MIC is 100 µg/mL (≈ 285 µM).

Question: And the “inhibition zone (IZ)” value (Staphylococcus aureus [7])?
Answer: Its value is 28 mm.

Question: What about the Activity (Enterococcus hirae [8]) of the same molecule?
Answer: Its Activity is “inactive”.

Question: Which MIC (Staphylococcus aureus [5]) does the source give for `Nc1ccc(S(=O)(=O)c2ccc(N)cc2)cc1` [DAPSONE] here?
Answer: The MIC was > 100 µg/mL.

Question: And the MIC (Candida tropicalis [6])?
Answer: The MIC was > 100 µg/mL.
